Reference: patent US20200179428A1, “CYCLIC PHOSPHATE SUBSTITUTED NUCLEOSIDE DERIVATIVES AND METHODS OF USE THEREOF FOR THE TREATMENT OF VIRAL DISEASES” (priority 2016, published 2020)
Like-named read-outs stand apart in the source and are kept apart here.

Experiments:
replicon cells (1b-Con1) = experiment: Replicon activity assay (replicon RNA level by real-time RT-PCR, Taqman); assay type: cell-based; conditions: HCV replicon genotype 1b, read-out: EC50 (1b) Range
Description: (§1) To measure cell-based anti-HCV activity of the compounds of the present invention, replicon cells (1b-Con1) are seeded at 5000 cells/well in 96-well plates one day prior to treatment with a compound of the invention. Various concentrations of a test compound of the invention in DMSO are then added to the replicon cells, with the final concentration of DMSO at 0.5% and fetal bovine serum at 10% in the assay media. Cells are harvested three days post-dosing, and the replicon RNA level is determined using real-time RT-PCR (Taqman assay) with GAPDH RNA as endogenous control. EC50 values are calculated from experiments with 10 serial twofold dilutions of the inhibitor in triplicate. To measure cytotoxicity in replicon cells of an inhibitor, an MTS assay is performed according to the manufacturer's protocol for CellTiter 96 Aqueous One Solution Cell Proliferation Assay (Promega, Cat # G3580) three days post dosing on cells treated identically as in replicon activity assays. […] Cytotoxicity in other types of cells may be measured using the same MTS protocol.

[1] = Cytotoxicity MTS assay (CellTiter 96 Aqueous One Solution) in replicon cells; assay type: cell-based; conditions: HCV replicon cells (1b-Con1); EDU; read-out: CC50 (EDU) Range
Description: as §1

SMILES | EC50 (replicon cells (1b-Con1); Hepatitis C virus) [µM] | CC50 at 3 days [1] [µM] | EC50 (replicon cells (1b-Con1)) [µM]
C#C[C@]1(C)[C@@H]2O[P@@](=O)(OCCC(C)(C)C(=O)OC(C)C)OC[C@H]2O[C@H]1n1ccc(=O)[nH]c1=O [Compound 20A] | > 10 | > 50 | 
CC(C)OC(=O)C[C@@H](F)CO[P@@]1(=O)OC[C@H]2O[C@@H](n3ccc(=O)[nH]c3=O)[C@](C)(N)[C@@H]2O1 [Compound 67A] | > 10 | > 50 | 
C#C[C@]1(C)[C@@H]2O[P@](=O)(OCCC(CC)C(=O)OC(C)C)OC[C@H]2O[C@H]1n1ccc(=O)[nH]c1=O (some centres unmarked) [Compound 31B] | > 10 | > 50 | 
C#C[C@]1(C)[C@@H]2O[P@](=O)(OCC[C@H](OC(C)=O)C(=O)OC(C)C)OC[C@H]2O[C@H]1n1ccc(=O)[nH]c1=O [Compound 51B] | ≤ 0.25 | > 50 | 
C#C[C@]1(C)[C@@H]2O[P@](=O)(OCC(C)(C)CC(=O)OC(C)C)OC[C@H]2O[C@H]1n1ccc(=O)[nH]c1=O [Compound 18B] | > 10 | > 50 | 
CC(C)OC(=O)C(CCO[P@@]1(=O)OC[C@H]2O[C@@H](n3ccc(=O)[nH]c3=O)[C@](C)(N)[C@@H]2O1)c1ccccc1 (some centres unmarked) [Compound 33A] | > 10 | > 50 | 
C[C@@]1(N)[C@@H]2O[P@@](=O)(OCCC3CCOC3=O)OC[C@H]2O[C@H]1n1ccc(=O)[nH]c1=O (some centres unmarked) [Compound 46A] | > 10 | > 50 | 
C#C[C@@]1(OC(=O)CCCCCC)[C@@H]2O[P@@](=O)(OCC[C@@H](C)C(=O)OC(C)C)OC[C@H]2O[C@H]1n1ccc(=O)[nH]c1=O [Compound 84A1] | ≤ 0.25 | > 50 | 
CC(C)OC(=O)C(CCO[P@]1(=O)OC[C@H]2O[C@@H](n3cnc4c(N)ncnc43)[C@](C)(Cl)[C@@H]2O1)C(=O)OC(C)C [Compound 70B] | 1 to 10 | > 50 | 
CC(C)OC(=O)[C@H](C)CCOP1(=O)OC[C@H]2O[C@@H](n3cnc4c(N)ncnc43)[C@](C)(F)[C@@H]2O1 (some centres unmarked) [Compound 88A] | ≤ 0.25 | > 50 | 
C#C[C@]1(C)[C@@H]2O[P@@](=O)(OCC[C@H](NC(=O)OC)C(=O)OC(C)C)OC[C@H]2O[C@H]1n1ccc(=O)[nH]c1=O [Compound 43A] | > 10 | > 50 | 
C#C[C@@]1(O)[C@@H]2OP(=O)(OCC[C@H](C)C(=O)OC(C)C)OC[C@H]2O[C@H]1n1ccc(=O)[nH]c1=O (single isomer, unassigned) [Compound 7A2] |  | > 50 | 0.25 to 1
C#C[C@@]1(O)[C@@H]2OP(=O)(OCCC(C)C(=O)OC3CCCC3)OC[C@H]2O[C@H]1n1ccc(=O)[nH]c1=O (single isomer, unassigned) [Compound 8A] | 0.25 to 1 | > 50 | 
CC(C)OC(=O)C(C)(C)CO[P@]1(=O)OC[C@H]2O[C@@H](n3ccc(=O)[nH]c3=O)[C@](C)(C#N)[C@@H]2O1 [Compound 16B] | > 10 | > 50 | 
CC(C)OC(=O)[C@@H](C)CCO[P@]1(=O)OC[C@H]2O[C@@H](n3cnc4c(N)ncnc43)[C@](C)(C#N)[C@@H]2O1 [Compound 71B] | 1 to 10 | > 50 | 
CC(CCO[P@@]1(=O)OC[C@H]2O[C@@H](n3ccc(=O)[nH]c3=O)[C@](C)(N)[C@@H]2O1)CC(=O)OC(C)C (some centres unmarked) [Compound 21A] | > 10 | > 50 | 
CCCCCOC(=O)C(C)CCO[P@@]1(=O)OC[C@H]2O[C@@H](n3ccc(=O)[nH]c3=O)[C@](C)(N)[C@@H]2O1 (some centres unmarked) [Compound 79A] | 1 to 10 | > 50 | 
CO[C@H](CCOP1(=O)OC[C@H]2O[C@@H](n3ccc(=O)[nH]c3=O)[C@](C)(Cl)[C@@H]2O1)C(=O)OC(C)C (some centres unmarked) [Compound 37A] | 0.25 to 1 | > 50 | 
CO[C@H](CCO[P@@]1(=O)OC[C@H]2O[C@@H](n3ccc(=O)[nH]c3=O)[C@](C)(N)[C@@H]2O1)C(=O)OC(C)C [Compound 45A] | 1 to 10 | > 50 | 
COC(=O)N[C@H](CO[P@]1(=O)OC[C@H]2O[C@@H](n3ccc(=O)[nH]c3=O)[C@](C)(C#N)[C@@H]2O1)C(=O)OC(C)C [Compound 41B] | > 10 | > 50 | 
C#C[C@]1(C)[C@@H]2O[P@](=O)(OCCC(C)C(=O)OC3CCCCC3)OC[C@H]2O[C@H]1n1ccc(=O)[nH]c1=O (some centres unmarked) [Compound 77B] | ≤ 0.25 | > 50 | 
C#C[C@]1(C)[C@@H]2O[P@](=O)(OCC[C@H](NC(=O)OC)C(=O)OC(C)C)OC[C@H]2O[C@H]1n1ccc(=O)[nH]c1=O [Compound 43B] | > 10 | > 50 | 
CC(C)OC(=O)[C@@H](C)CCO[P@@]1(=O)OC[C@H]2O[C@@H](n3cc(F)c4c(N)ncnc43)[C@](C)(Cl)[C@@H]2O1 [Compound 82A] | > 10 |  | 
CC(=O)O[C@H](C(=O)OC(C)C)[C@@H](COP1(=O)OC[C@H]2O[C@@H](n3ccc(=O)[nH]c3=O)[C@](C)(N)[C@@H]2O1)OC(C)=O (some centres unmarked) [Compound 53B] | > 10 | > 50 | 

SMILES | EC50 (replicon cells (1b-Con1); Hepatitis C virus) [µM] | CC50 at 3 days [1] [µM] | EC50 (replicon cells (1b-Con1)) [µM]
C#C[C@]1(C)[C@@H]2O[P@@](=O)(OC[C@H](CC(=O)OC(C)C)OC(C)=O)OC[C@H]2O[C@H]1n1ccc(=O)[nH]c1=O [Compound 55A] | > 10 |  | 
CC(C)OC(=O)C(C)CCCO[P@]1(=O)OC[C@H]2O[C@@H](n3ccc(=O)[nH]c3=O)[C@](C)(N)[C@@H]2O1 (some centres unmarked) [Compound 34B] | > 10 | > 50 | 
C#C[C@@]1(OC(=O)CCC)[C@@H]2O[P@@](=O)(OCC[C@@H](C)C(=O)OC(C)C)OC[C@H]2O[C@H]1n1ccc(=O)[nH]c1=O [Compound 83A1] | ≤ 0.25 | > 50 | 
CC(C)OC(=O)C(C)(C)CCO[P@@]1(=O)OC[C@H]2O[C@@H](n3ccc(=O)[nH]c3=O)[C@](C)(N)[C@@H]2O1 [Compound 19A] | > 10 | > 50 | 
CC(C)OC(=O)C(C)CCOP1(=O)OC[C@H]2O[C@@H](n3ccc(=O)[nH]c3=O)[C@](C)(N)[C@@H]2O1 (some centres unmarked) [Compound 10A] | > 10 | > 50 | 
COC(=O)N[C@@H](CCO[P@@]1(=O)OC[C@H]2O[C@@H](n3ccc(=O)[nH]c3=O)[C@](C)(N)[C@@H]2O1)C(=O)OC(C)C [Compound 42A] | > 10 | > 50 | 
C#C[C@]1(C)[C@@H]2OP(=O)(OCC(C)CC(=O)OC3CCCC3)OC[C@H]2O[C@H]1n1ccc(=O)[nH]c1=O (single isomer, unassigned) [Compound 3A] |  | > 50 | > 10
CC(CCO[P@]1(=O)OC[C@H]2O[C@@H](n3ccc(=O)[nH]c3=O)[C@](C)(N)[C@@H]2O1)C(=O)OC1CCCCC1 (some centres unmarked) [Compound 78B] | 1 to 10 | > 50 | 
C#C[C@]1(C)[C@@H]2O[P@@](=O)(OCC(C)(C)CC(=O)OC(C)C)OC[C@H]2O[C@H]1n1ccc(=O)[nH]c1=O [Compound 18A] | > 10 | > 50 | 
CC(C)OC(=O)CC(C)(C)CO[P@]1(=O)OC[C@H]2O[C@@H](n3ccc(=O)[nH]c3=O)[C@](C)(N)[C@@H]2O1 [Compound 17B] | > 10 | > 50 | 
C#C[C@]1(C)[C@@H]2OP(=O)(OCC(C)CC(=O)OC(C)C)OC[C@H]2O[C@H]1n1ccc(=O)[nH]c1=O (some centres unmarked) [Compound 6B] | 1 to 10 | > 50 | 
CC(C)OC(=O)[C@H](C)CCO[P@]1(=O)OC[C@H]2O[C@@H](n3cc(F)c4c(N)ncnc43)[C@](C)(Cl)[C@@H]2O1 [Compound 82B] |  |  | > 10
CCC(CCO[P@@]1(=O)OC[C@H]2O[C@@H](n3ccc(=O)[nH]c3=O)[C@](C)(N)[C@@H]2O1)C(=O)OC1CCCC1 (some centres unmarked) [Compound 25A] | > 10 |  | 
CC(=O)O[C@H](C(=O)OC(C)C)[C@@H](CO[P@@]1(=O)OC[C@H]2O[C@@H](n3ccc(=O)[nH]c3=O)[C@](C)(N)[C@@H]2O1)OC(C)=O [Compound 53A] | > 10 |  | 
CC(C)OC(=O)[C@H](C)CCOP1(=O)OC[C@@]2(F)O[C@@H](n3ccc(=O)[nH]c3=O)[C@](C)(F)[C@@H]2O1 (some centres unmarked) [Compound 87A] | ≤ 0.25 |  | 
CC(C)OC(=O)[C@@H](C)CCO[P@]1(=O)OC[C@H]2O[C@@H](n3ccc4c(N)ncnc43)[C@](C)(Cl)[C@@H]2O1 [Compound 80B] | 1 to 10 |  | 
CC(C)OC(=O)[C@@H](C)CCO[P@@]1(=O)OC[C@H]2O[C@@H](n3ccc4c(N)ncnc43)[C@](C)(Cl)[C@@H]2O1 [Compound 80A] | > 10 |  | 
CC(=O)O[C@H](CO[P@@]1(=O)OC[C@H]2O[C@@H](n3ccc(=O)[nH]c3=O)[C@](C)(N)[C@@H]2O1)CC(=O)OC(C)C [Compound 52A] | > 10 |  | 
C#C[C@]1(C)[C@@H]2O[P@](=O)(OC[C@H](CC(=O)OC(C)C)OC(C)=O)OC[C@H]2O[C@H]1n1ccc(=O)[nH]c1=O [Compound 55B] | > 10 |  | 
CC(=O)O[C@H](CO[P@]1(=O)OC[C@H]2O[C@@H](n3ccc(=O)[nH]c3=O)[C@](C)(N)[C@@H]2O1)CC(=O)OC(C)C [Compound 52B] | > 10 |  | 
CCC(CCO[P@]1(=O)OC[C@H]2O[C@@H](n3ccc(=O)[nH]c3=O)[C@](C)(N)[C@@H]2O1)C(=O)OC1CCCC1 (some centres unmarked) [Compound 25B] | > 10 |  | 
CC(C)OC(=O)[C@H](C)CCO[P@@]1(=O)OC[C@H]2O[C@@H](n3cc(F)c4c(N)ncnc43)[C@](C)(Cl)[C@@H]2O1 [Compound 81A] | > 10 |  | 
CC(C)OC(=O)[C@H](C)CCO[P@]1(=O)OC[C@H]2O[C@@H](n3cc(F)c4c(N)ncnc43)[C@](C)(Cl)[C@@H]2O1 [Compound 81B] | > 10 |  | 
